Experimental data from US10457691B2, “Macrocyclic kinase inhibitors and uses thereof” (Dana-Farber Cancer Institute, Inc., priority 2014, dated 2019).

How the values were obtained:
Format in all cases: biochemical
[1] = biological target: PKCa (Homo sapiens, UniProt P17252); assay: Protein kinase assay ([γ-32P] ATP), PKCa; conditions: read-out: Activity of the protein kinase when treated with compound I-1 (% control)
Experimental: (§1) In another set of experiments, the activities of the compounds described herein against various protein kinases were determined according to the methods reported in Hastie et al., Nature Protocols, 2006, 1, 968-971.
(§2) Enzyme dilution buffer. This buffer consisted of 50 mM Tris-HCl, pH 7.5, 0.1 mM EGTA, 1 mg ml^−1 bovine serum albumin and 0.1% (vol/vol) 2-mercaptoethanol.
(§3) 10× concentrated assay buffer. An assay buffer of 500 mM Tris-HCl, pH 7.5, 1 mM EGTA, and 100 mM magnesium acetate was used for assay of a wide variety of protein kinases. In some experiments, other cofactors were included (e.g., calcium ions and calmodulin were included for assay of calcium-calmodulindependent protein kinases).
(§4) 1 mM [γ-^32P] ATP. The specific activity of the [γ-^32P] ATP solution was 1×10^5 to 1×10^6 c.p.m. per nmol depending on what was needed to produce an optimal signal/noise ratio. […] To measure the concentration of ATP, a sample of such a stock solution was diluted to 20 μM, and the absorbance of the diluted sample was measured at 259 nm. The absorbance of a 20-μM stock solution of ATP at 259 nm was about 0.31. […] ATP to produce a radioactivity of 1×10^5 to 1×10^6 c.p.m. per nmol. […]
(§5) 13) Measure radioactivity in the samples by Cerenkov counting (e.g., without liquid scintillation fluid) in a liquid scintillation counter using a “^32P program”. […]

[2] = tested on: CK2; assay: Protein kinase assay ([γ-32P] ATP), CK2
Experimental: as §1, §2, §3, §4, §5

[3] = biological target: JNK3 (Homo sapiens, UniProt P53779); assay: Protein kinase assay ([γ-32P] ATP), JNK3; conditions: read-out: Activity of the protein kinase when treated with compound I-1 (% control)
Experimental: as §1, §2, §3, §4, §5

[4] = biological target: PIM2 (Homo sapiens, UniProt Q9P1W9); assay: Protein kinase assay ([γ-32P] ATP), PIM2; conditions: read-out: Activity of the protein kinase when treated with compound I-1 (% control)
Experimental: as §1, §2, §3, §4, §5

[5] = biological target: IRAK1 (Homo sapiens, UniProt P51617); assay: Protein kinase assay ([γ-32P] ATP), IRAK1; conditions: read-out: Activity of the protein kinase when treated with compound I-1 (% control)
Experimental: as §1, §2, §3, §4, §5

[6] = biological target: CHK1 (Homo sapiens, UniProt O14757); assay: Protein kinase assay ([γ-32P] ATP), CHK1; conditions: read-out: Activity of the protein kinase when treated with compound I-1 (% control)
Experimental: as §1, §2, §3, §4, §5

[7] = biological target: CSK (Homo sapiens, UniProt P41240); assay: Protein kinase assay ([γ-32P] ATP), CSK; conditions: read-out: Activity of the protein kinase when treated with compound I-1 (% control)
Experimental: as §1, §2, §3, §4, §5

[8] = biological target: TLK1 (Homo sapiens, UniProt Q9UKI8); assay: Protein kinase assay ([γ-32P] ATP), TLK1; conditions: read-out: Activity of the protein kinase when treated with compound I-1 (% control)
Experimental: as §1, §2, §3, §4, §5

[9] = biological target: LKB1 (Homo sapiens, UniProt Q15831); assay: Protein kinase assay ([γ-32P] ATP), LKB1; conditions: read-out: Activity of the protein kinase when treated with compound I-1 (% control)
Experimental: as §1, §2, §3, §4, §5

[10] = biological target: PKCz (Homo sapiens, UniProt Q05513); assay: Protein kinase assay ([γ-32P] ATP), PKCz; conditions: read-out: Activity of the protein kinase when treated with compound I-1 (% control)
Experimental: as §1, §2, §3, §4, §5

[11] = biological target: CDK9-Cyclin T1 (Homo sapiens, UniProt P50750); assay: Protein kinase assay ([γ-32P] ATP), CDK9-Cyclin T1; conditions: read-out: Activity of the protein kinase when treated with compound I-1 (% control)
Experimental: as §1, §2, §3, §4, §5

[12] = biological target: ABL (Homo sapiens, UniProt P00519); assay: Protein kinase assay ([γ-32P] ATP), ABL; conditions: read-out: Activity of the protein kinase when treated with compound I-1 (% control)
Experimental: as §1, §2, §3, §4, §5

[13] = biological target: MST2 (Homo sapiens, UniProt Q13188); assay: Protein kinase assay ([γ-32P] ATP), MST2; conditions: read-out: Activity of the protein kinase when treated with compound I-1 (% control)
Experimental: as §1, §2, §3, §4, §5

[14] = biological target: PKBa (Homo sapiens, UniProt P31749); assay: Protein kinase assay ([γ-32P] ATP), PKBa; conditions: read-out: Activity of the protein kinase when treated with compound I-1 (% control)
Experimental: as §1, §2, §3, §4, §5

[15] = biological target: TESK1 (Homo sapiens, UniProt Q15569); assay: Protein kinase assay ([γ-32P] ATP), TESK1; conditions: read-out: Activity of the protein kinase when treated with compound I-1 (% control)
Experimental: as §1, §2, §3, §4, §5

[16] = biological target: Aurora A (Homo sapiens, UniProt O14965); assay: Protein kinase assay ([γ-32P] ATP), Aurora A; conditions: read-out: Activity of the protein kinase when treated with compound I-1 (% control)
Experimental: as §1, §2, §3, §4, §5

[17] = biological target: OSR1 (Homo sapiens, UniProt O95747); assay: Protein kinase assay ([γ-32P] ATP), OSR1; conditions: read-out: Activity of the protein kinase when treated with compound I-1 (% control)
Experimental: as §1, §2, §3, §4, §5

[18] = 0.1 μM of compound I-1, DMSO control = 100%
[19] = 1 μM of compound I-1, DMSO control = 100%

Sequence of TLK1 (Q9UKI8 whole entry, species assumed): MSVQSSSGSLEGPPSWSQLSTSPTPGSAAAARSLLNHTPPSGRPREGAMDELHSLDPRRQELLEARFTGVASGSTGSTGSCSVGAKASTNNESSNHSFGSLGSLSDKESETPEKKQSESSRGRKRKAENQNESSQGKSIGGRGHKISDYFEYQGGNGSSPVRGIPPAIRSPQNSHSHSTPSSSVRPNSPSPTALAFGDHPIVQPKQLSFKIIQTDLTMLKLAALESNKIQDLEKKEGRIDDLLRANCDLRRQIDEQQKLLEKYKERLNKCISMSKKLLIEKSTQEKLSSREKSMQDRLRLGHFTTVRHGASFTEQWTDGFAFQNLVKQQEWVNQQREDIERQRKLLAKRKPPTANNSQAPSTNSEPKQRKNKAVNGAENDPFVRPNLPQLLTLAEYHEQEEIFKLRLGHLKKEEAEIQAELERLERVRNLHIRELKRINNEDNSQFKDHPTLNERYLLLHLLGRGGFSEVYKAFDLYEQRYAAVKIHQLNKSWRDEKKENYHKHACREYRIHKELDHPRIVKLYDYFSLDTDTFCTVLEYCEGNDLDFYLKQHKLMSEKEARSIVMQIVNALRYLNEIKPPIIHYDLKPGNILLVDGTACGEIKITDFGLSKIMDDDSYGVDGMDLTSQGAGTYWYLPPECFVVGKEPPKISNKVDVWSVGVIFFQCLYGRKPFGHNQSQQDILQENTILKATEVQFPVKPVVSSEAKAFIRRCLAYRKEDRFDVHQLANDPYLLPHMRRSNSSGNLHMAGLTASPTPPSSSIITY
Sequence of IRAK1 (P51617 whole entry): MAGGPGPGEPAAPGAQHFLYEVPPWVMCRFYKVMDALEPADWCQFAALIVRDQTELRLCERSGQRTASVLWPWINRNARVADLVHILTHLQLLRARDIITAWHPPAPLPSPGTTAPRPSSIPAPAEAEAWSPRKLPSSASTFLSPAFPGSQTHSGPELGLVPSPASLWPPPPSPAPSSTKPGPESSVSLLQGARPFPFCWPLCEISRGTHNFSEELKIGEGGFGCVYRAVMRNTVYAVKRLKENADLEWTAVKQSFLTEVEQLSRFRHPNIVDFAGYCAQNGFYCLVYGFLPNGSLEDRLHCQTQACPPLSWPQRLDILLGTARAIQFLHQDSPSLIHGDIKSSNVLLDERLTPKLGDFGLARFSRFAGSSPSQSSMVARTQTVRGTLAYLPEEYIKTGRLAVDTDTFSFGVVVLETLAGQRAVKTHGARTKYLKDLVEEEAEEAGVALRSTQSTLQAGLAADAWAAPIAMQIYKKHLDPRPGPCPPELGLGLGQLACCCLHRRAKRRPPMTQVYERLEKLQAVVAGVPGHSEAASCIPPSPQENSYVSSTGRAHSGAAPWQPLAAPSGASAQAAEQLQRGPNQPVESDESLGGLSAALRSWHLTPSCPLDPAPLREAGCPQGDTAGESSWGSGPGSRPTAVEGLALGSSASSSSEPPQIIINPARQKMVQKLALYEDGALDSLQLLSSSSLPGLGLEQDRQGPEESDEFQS
Sequence of TESK1 (Q15569 whole entry, species assumed): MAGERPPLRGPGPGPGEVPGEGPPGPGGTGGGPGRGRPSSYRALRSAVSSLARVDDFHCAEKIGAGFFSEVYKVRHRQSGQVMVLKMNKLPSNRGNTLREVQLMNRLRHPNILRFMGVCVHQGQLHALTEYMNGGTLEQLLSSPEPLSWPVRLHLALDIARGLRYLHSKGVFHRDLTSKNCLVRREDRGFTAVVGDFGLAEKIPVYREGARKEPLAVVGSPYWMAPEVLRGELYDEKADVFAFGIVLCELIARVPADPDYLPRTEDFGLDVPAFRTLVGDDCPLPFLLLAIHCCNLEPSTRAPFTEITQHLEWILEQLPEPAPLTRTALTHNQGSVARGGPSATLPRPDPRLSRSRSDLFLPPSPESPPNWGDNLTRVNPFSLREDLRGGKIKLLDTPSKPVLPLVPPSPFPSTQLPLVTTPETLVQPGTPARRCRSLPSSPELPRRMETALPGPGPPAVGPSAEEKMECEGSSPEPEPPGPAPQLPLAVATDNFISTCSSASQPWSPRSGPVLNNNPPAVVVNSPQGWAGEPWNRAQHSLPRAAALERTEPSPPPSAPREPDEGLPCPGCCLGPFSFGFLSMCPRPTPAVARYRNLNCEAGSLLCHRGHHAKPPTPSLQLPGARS
Sequence of MST2 (Q13188 whole entry): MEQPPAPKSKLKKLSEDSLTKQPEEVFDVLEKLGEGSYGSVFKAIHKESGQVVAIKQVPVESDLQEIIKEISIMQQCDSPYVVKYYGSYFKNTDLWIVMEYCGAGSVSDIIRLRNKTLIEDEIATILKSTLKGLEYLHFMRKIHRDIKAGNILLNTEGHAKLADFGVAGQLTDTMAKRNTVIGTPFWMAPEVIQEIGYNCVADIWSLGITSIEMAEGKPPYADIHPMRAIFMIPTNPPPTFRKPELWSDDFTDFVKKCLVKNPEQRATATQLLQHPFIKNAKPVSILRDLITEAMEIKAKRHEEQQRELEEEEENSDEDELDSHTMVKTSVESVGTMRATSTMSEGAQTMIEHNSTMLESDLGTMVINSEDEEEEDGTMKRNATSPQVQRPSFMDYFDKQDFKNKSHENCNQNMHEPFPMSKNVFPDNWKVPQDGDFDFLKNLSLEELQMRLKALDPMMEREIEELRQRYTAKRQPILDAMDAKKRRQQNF
Sequence of CHK1 (O14757 whole entry): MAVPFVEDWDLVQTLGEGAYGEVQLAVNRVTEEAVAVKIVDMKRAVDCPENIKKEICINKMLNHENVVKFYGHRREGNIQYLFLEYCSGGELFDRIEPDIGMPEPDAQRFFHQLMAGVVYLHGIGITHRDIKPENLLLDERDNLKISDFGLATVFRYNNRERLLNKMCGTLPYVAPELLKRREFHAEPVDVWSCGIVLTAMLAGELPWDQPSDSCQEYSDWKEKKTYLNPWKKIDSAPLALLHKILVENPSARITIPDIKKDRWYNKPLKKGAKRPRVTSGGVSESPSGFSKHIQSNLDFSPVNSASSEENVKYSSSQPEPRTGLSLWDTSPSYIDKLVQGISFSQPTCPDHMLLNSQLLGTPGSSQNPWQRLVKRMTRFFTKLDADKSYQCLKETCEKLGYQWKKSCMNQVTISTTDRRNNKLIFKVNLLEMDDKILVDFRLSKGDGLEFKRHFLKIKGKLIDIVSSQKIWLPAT
Sequence of CDK9-Cyclin T1 (P50750 whole entry): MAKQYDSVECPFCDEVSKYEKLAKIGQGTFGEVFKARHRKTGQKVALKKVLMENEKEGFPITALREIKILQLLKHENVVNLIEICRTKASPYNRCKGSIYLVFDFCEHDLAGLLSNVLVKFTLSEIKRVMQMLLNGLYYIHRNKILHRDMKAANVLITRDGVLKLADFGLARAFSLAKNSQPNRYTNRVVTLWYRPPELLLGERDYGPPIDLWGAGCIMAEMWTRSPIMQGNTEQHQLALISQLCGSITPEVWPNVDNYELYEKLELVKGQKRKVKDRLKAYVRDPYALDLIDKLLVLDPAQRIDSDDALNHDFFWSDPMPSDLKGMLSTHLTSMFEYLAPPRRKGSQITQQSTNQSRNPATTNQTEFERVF
Sequence of CDK9-Cyclin T1 (O60563 whole entry partner): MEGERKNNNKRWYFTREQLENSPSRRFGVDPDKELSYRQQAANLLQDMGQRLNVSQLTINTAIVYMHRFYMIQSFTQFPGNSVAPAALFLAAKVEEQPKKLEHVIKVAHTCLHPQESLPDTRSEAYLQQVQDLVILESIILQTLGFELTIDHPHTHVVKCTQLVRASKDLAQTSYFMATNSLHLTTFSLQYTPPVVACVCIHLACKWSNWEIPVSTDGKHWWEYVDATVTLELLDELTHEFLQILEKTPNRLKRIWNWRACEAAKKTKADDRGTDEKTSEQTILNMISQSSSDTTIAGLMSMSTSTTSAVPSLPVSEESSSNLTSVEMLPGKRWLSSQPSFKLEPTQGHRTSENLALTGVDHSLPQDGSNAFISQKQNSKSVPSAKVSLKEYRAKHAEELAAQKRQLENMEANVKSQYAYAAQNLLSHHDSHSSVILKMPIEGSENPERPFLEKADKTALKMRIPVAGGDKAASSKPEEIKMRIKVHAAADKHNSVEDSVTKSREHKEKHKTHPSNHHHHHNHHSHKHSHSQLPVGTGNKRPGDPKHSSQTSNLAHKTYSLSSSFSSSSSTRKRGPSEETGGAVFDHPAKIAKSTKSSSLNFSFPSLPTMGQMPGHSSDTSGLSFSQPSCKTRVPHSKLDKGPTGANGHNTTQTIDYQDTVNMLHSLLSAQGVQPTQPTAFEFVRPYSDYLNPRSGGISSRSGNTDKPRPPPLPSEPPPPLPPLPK

Structure (SMILES): Cc1cccc(C)c1NC(=O)N1C/C=C\COc2cccc(c2)Nc2cc1ncn2 [Compound I-1]
- remaining activity at 0.1 µM [1, 18]: 101%
- remaining activity at 1 µM [1, 19]: 91%
- Activity of the protein kinase when treated with compound I-1 (% control) [2, 18]: 97 % control
- Activity of the protein kinase when treated with compound I-1 (% control) [2, 19]: 91 % control
- remaining activity at 0.1 µM [3, 18]: 51%
- remaining activity at 1 µM [3, 19]: 30%
- remaining activity at 0.1 µM [4, 18]: 92%
- remaining activity at 1 µM [4, 19]: 90%
- remaining activity at 0.1 µM [5, 18]: 105%
- remaining activity at 1 µM [5, 19]: 83%
- remaining activity at 0.1 µM [6, 18]: 99%
- remaining activity at 1 µM [6, 19]: 94%
- remaining activity at 0.1 µM [7, 18]: 101%
- remaining activity at 1 µM [7, 19]: 10%
- remaining activity at 0.1 µM [8, 18]: 112%
- remaining activity at 1 µM [8, 19]: 92%
- remaining activity at 0.1 µM [9, 18]: 99%
- remaining activity at 1 µM [9, 19]: 65%
- remaining activity at 0.1 µM [10, 18]: 111%
- remaining activity at 1 µM [10, 19]: 82%
- remaining activity at 0.1 µM [11, 18]: 116%
- remaining activity at 1 µM [11, 19]: 92%
- remaining activity at 0.1 µM [12, 18]: 7%
- remaining activity at 1 µM [12, 19]: 2%
- remaining activity at 0.1 µM [13, 18]: 99%
- remaining activity at 1 µM [13, 19]: 98%
- remaining activity at 0.1 µM [14, 18]: 99%
- remaining activity at 1 µM [14, 19]: 86%
- remaining activity at 0.1 µM [15, 18]: 40%
- remaining activity at 1 µM [15, 19]: 21%
- remaining activity at 0.1 µM [16, 18]: 102%
- remaining activity at 1 µM [16, 19]: 103%
- remaining activity at 0.1 µM [17, 18]: 97%
- remaining activity at 1 µM [17, 19]: 79%
